Laboratory results as given in US11214594B2, “Antimicrobial peptide having synergistic antibacterial effect with antibiotics on multidrug resistant bacteria, and use thereof” (priority 2016, dated 2022).
Converted amounts (≈) assume the structure as drawn. “And” between values parts separate entries of the source, which are not always exact repeats. Equal values may be shown once. Read-outs that look alike come from different tables or passages of the source. Where a SMILES comes first, the peptide text is derived from it.

Columns and labels:
A. baumannii = test: MIC of antimicrobial peptide during combined treatment with antibiotic; type: cell-based, Acinetobacter baumannii
Procedure, shortened: (§1)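 Strains in MH medium at 2×10^6 CFU/ml were mixed with peptide diluted stepwise (2:1) from its MIC, then antibiotic dilutions in MH medium were added to give the antibiotic MIC. The reversed set-up, peptide titrated against fixed antibiotic, gave the peptide MIC.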

MDRAB 12035 = test: as above; type: cell-based, Acinetobacter baumannii
Procedure, shortened: as §1

MDREC 1229 = type: cell-based, Escherichia coli
Procedure, shortened: as §1

E. coli [1] = type: cell-based, Escherichia coli; settings: E. coli
Procedure, shortened: as §1

P. aeruginosa = test: microbe, parasite or virus in culture; type: cell-based, Pseudomonas aeruginosa
Procedure, shortened: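 Broth microdilution in MH medium: bacterial strains diluted to 2×10^6 CFU were mixed with equal volumes of peptide serially diluted twofold in MH medium.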

E. coli [2] = test: MIC of antibiotic during combined treatment with antimicrobial peptide; type: cell-based, Escherichia coli; settings: E. coli
Procedure, shortened: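 Read-out is the MIC of each combined solution, obtained from MH-medium dilutions of antibiotic added well by well, with a reversed-condition run as well.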

[3] = vancomycin 512 μg/ml (Conc./MIC 1/2)
[4] = vancomycin 1024 μg/ml (Conc./MIC 1)
[5] = linezolid 64 μg/ml (Conc./MIC 1/8)
[6] = linezolid 512 μg/ml (Conc./MIC 1)
[7] = with Erythromycin […] (Conc./MIC 1)

CC[C@H](C)[C@H](NC(=O)[C@H](CCCCN)NC(=O)[C@H](Cc1c[nH]c2ccccc12)NC(=O)[C@@H](N)CCCNC(=N)N)C(=O)N[C@@H](Cc1ccccc1)C(=O)N[C@@H](CCCCN)C(=O)N[C@@H](CCCCN)C(=O)N[C@H](C(=O)N1CCC[C@H]1C(=O)N[C@@H](CCCCN)C(=O)N[C@@H](Cc1ccccc1)C(=O)N[C@@H](CC(C)C)C(=O)N[C@@H](Cc1c[nH]cn1)C(=O)N[C@@H](CO)C(=O)N[C@@H](C)C(=O)N[C@@H](CCCCN)C(=O)N[C@@H](CCCCN)C(=O)N[C@@H](Cc1ccccc1)C(N)=O)[C@@H](C)CC [PapMA-1, RWK IFK KIP KFL HSA KKF-NH2] (H-RWKIFKKIPKFLHSAKKF-NH2; N-terminus assumed)
Peptide MIC during treatment with linezolid (A. baumannii; linezolid […] (Conc./MIC 1)): 0 µg/mL
Peptide MIC during treatment with antibiotic (A. baumannii; linezolid […] (Conc./MIC 1/2)): 0.5 µg/mL
Peptide MIC during treatment with linezolid (A. baumannii; linezolid […] (Conc./MIC 1/2)): 0.5 µg/mL
Peptide MIC during treatment with antibiotic (A. baumannii; [3]): 0.25 µg/mL
Peptide MIC during treatment with vancomycin (A. baumannii; [3]): 0.25 µg/mL
Peptide MIC during treatment with antibiotic (A. baumannii; [4]): 0 µg/mL
Peptide MIC during treatment with vancomycin (A. baumannii; [4]): 0 µg/mL
Peptide MIC during treatment with antibiotic (A. baumannii; vancomycin […] (Conc./MIC 1/4)): 0.5 µg/mL
Peptide MIC during treatment with vancomycin (A. baumannii; vancomycin […] (Conc./MIC 1/4)): 0.5 µg/mL
Peptide MIC during treatment with antibiotic (A. baumannii; vancomycin […] (Conc./MIC 1/8)): 4 µg/mL
Peptide MIC during treatment with vancomycin (A. baumannii; vancomycin […] (Conc./MIC 1/8)): 4 µg/mL
Peptide MIC during treatment with erythromycin (MDRAB 12035; erythromycin 4 μg/ml (Conc./MIC 1/8)): 4 µg/mL
MIC of peptide in combination as fraction of the MIC of the peptide alone (MDRAB 12035; erythromycin 8 μg/ml): 1/16
MIC value of peptide during combined treatment with erythromycin (MDRAB 12035; erythromycin 8 μg/ml (1/4 of its MIC)): 4 µg/mL
Peptide MIC during treatment with erythromycin (MDRAB 12035; erythromycin 8 μg/ml (Conc./MIC 1/4)): 4 µg/mL
Peptide MIC during treatment with erythromycin (MDRAB 12035; erythromycin 16 μg/ml (Conc./MIC 1/2)): 4 µg/mL
Peptide MIC during treatment with erythromycin (MDRAB 12035; erythromycin 32 μg/ml (Conc./MIC 1)): 0 µg/mL
Peptide MIC during treatment with linezolid (MDRAB 12035; [5]): 4 µg/mL
Peptide MIC during treatment with linezolid (MDRAB 12035; [6]): 0 µg/mL
Peptide MIC during treatment with linezolid (MDRAB 12035; linezolid […] (Conc./MIC 1/2)): 1 µg/mL
Peptide MIC during treatment with linezolid (MDRAB 12035; linezolid […] (Conc./MIC 1/4)): 4 µg/mL
Peptide MIC during treatment with vancomycin (MDRAB 12035; [3]): 2 µg/mL
Peptide MIC during treatment with vancomycin (MDRAB 12035; [4]): 1 µg/mL
Peptide MIC during treatment with vancomycin (MDRAB 12035; vancomycin […] (Conc./MIC 1/4)): 4 µg/mL
Peptide MIC during treatment with vancomycin (MDRAB 12035; vancomycin […] (Conc./MIC 1/8)): 4 µg/mL
Peptide MIC during treatment with antibiotic (MDREC 1229; erythromycin 32 μg/ml (Conc./MIC 1/8)): 2 µg/mL
Peptide MIC during treatment with antibiotic (MDREC 1229; erythromycin 64 μg/ml (Conc./MIC 1/4)): 1 µg/mL and 2 µg/mL
Peptide MIC during treatment with antibiotic (MDREC 1229; erythromycin […] (Conc./MIC 1)): 0 µg/mL
Peptide MIC during treatment with antibiotic (MDREC 1229; erythromycin […] (Conc./MIC 1/2)): 1 µg/mL
Peptide MIC during treatment with antibiotic (MDREC 1229; [5]): 2 µg/mL and 4 µg/mL
Peptide MIC during treatment with antibiotic (MDREC 1229; [6]): 0 µg/mL
Peptide MIC during treatment with antibiotic (MDREC 1229; linezolid […] (Conc./MIC 1/2)): 1 µg/mL
Peptide MIC during treatment with antibiotic (MDREC 1229; linezolid […] (Conc./MIC 1/4)): 2 µg/mL
Peptide MIC during treatment with antibiotic (MDREC 1229; [3]): 2 µg/mL
Peptide MIC during treatment with antibiotic (MDREC 1229; [4]): 1 µg/mL
Peptide MIC during treatment with antibiotic (MDREC 1229; vancomycin […] (Conc./MIC 1/4)): 4 µg/mL
Peptide MIC during treatment with antibiotic (MDREC 1229; vancomycin […] (Conc./MIC 1/8)): 8 µg/mL
Peptide MIC (MDREC 1229; [7]): 0 µg/mL
Peptide MIC (MDREC 1229; with Linezolid 512 μg/ml (Conc./MIC 1)): 0 µg/mL
Peptide MIC (E. coli [1]; [7]): 0 µg/mL
Peptide MIC (E. coli [1]; with Linezolid […] (Conc./MIC 1)): 0 µg/mL
Peptide MIC (E. coli [1]; with Vancomycin 1024 μg/ml (Conc./MIC 1)): 0 µg/mL
Minimal inhibitory concentration MIC (P. aeruginosa): 16 µg/mL (≈ 6.95 µM)
Antibiotic MIC, Erythromycin (E. coli [2]; erythromycin combined with peptide at 1 μg/ml): 64 µg/mL
Antibiotic MIC, Erythromycin (E. coli [2]; erythromycin combined with peptide at 2 μg/ml): 32 µg/mL
Antibiotic MIC, Erythromycin (E. coli [2]; erythromycin combined with peptide at 4 μg/ml): 16 µg/mL
Antibiotic MIC, Erythromycin (E. coli [2]; erythromycin combined with peptide at 6 μg/ml): 4 µg/mL
Antibiotic MIC, Erythromycin (E. coli [2]; erythromycin combined with peptide at 8 μg/ml): 2 µg/mL
Antibiotic MIC, Erythromycin (E. coli [2]; erythromycin combined with peptide at 16 μg/ml): 0.5 µg/mL
Antibiotic MIC, Erythromycin (E. coli [2]; erythromycin combined with peptide at 32 μg/ml): 0.125 µg/mL
Antibiotic MIC, Erythromycin (E. coli [2]; erythromycin combined with peptide at 64 μg/ml): 0 µg/mL
Antibiotic MIC, Linezolid (E. coli [2]; linezolid combined with peptide at 1 μg/ml): 128 µg/mL
Antibiotic MIC, Linezolid (E. coli [2]; linezolid combined with peptide at 2 μg/ml): 128 µg/mL
Antibiotic MIC, Linezolid (E. coli [2]; linezolid combined with peptide at 4 μg/ml): 64 µg/mL
Antibiotic MIC, Linezolid (E. coli [2]; linezolid combined with peptide at 6 μg/ml): 16 µg/mL
Antibiotic MIC, Linezolid (E. coli [2]; linezolid combined with peptide at 8 μg/ml): 16 µg/mL
Antibiotic MIC, Linezolid (E. coli [2]; linezolid combined with peptide at 16 μg/ml): 16 µg/mL
Antibiotic MIC, Linezolid (E. coli [2]; linezolid combined with peptide at 32 μg/ml): 8 µg/mL
Antibiotic MIC, Linezolid (E. coli [2]; linezolid combined with peptide at 64 μg/ml): 0 µg/mL
Antibiotic MIC, Vancomycin (E. coli [2]; vancomycin combined with peptide at 1 μg/ml): >128 µg/mL
Antibiotic MIC, Vancomycin (E. coli [2]; vancomycin combined with peptide at 2 μg/ml): >128 µg/mL
Antibiotic MIC, Vancomycin (E. coli [2]; vancomycin combined with peptide at 4 μg/ml): >128 µg/mL
Antibiotic MIC, Vancomycin (E. coli [2]; vancomycin combined with peptide at 6 μg/ml): 32 µg/mL
Antibiotic MIC, Vancomycin (E. coli [2]; vancomycin combined with peptide at 8 μg/ml): 32 µg/mL
Antibiotic MIC, Vancomycin (E. coli [2]; vancomycin combined with peptide at 16 μg/ml): 16 µg/mL
Antibiotic MIC, Vancomycin (E. coli [2]; vancomycin combined with peptide at 32 μg/ml): 4 µg/mL
Antibiotic MIC, Vancomycin (E. coli [2]; vancomycin combined with peptide at 64 μg/ml): 0 µg/mL
